Earlier results as cited in PubChem BioAssay AID1259409 (Chemical Carcinogenesis Research Information System (CCRIS), 2018).

Tested on: rodent chemically induced tumor inhibition, incidence and multiplicity
Experiment: CCRIS tumor inhibitor studies
Details: Species: MOUSE

| Structure (SMILES) | tumour outcome (control, treated, inhibition, significance) (Carcinogen: 4-(METHYLNITROSAMINO)-1-(3-PYRIDYL)-1-BUTANONE, 64091-91-4, Dose [Inhibitor]: 0, 5 UMOL IN 0.1 ML CORN OIL ONCE 2 HR PRIOR TO CARCINOGEN DOSE (STUDY DURATION: 16 WK), Route [Inhibitor]: GAVAGE, Strain/Sex: STRAIN-A/FEMALE, Target Tissue: Type of Lesion: LUNG: ADENOMA, Dose [Carcinogen]: 10 UMOL IN 0.1 ML SALINE ONCE, Promoter: NONE USED) | tumour outcome (control, treated, inhibition, significance) (Carcinogen: 7,12-DIMETHYLBENZ[A]ANTHRACENE, 57-97-6, Dose [Inhibitor]: 0, 3300 NMOL IN 0.2 ML ACETONE APPLIED TO BACK ONCE 5 MIN PRIOR TO CARCINOGEN DOSE (STUDY DURATION: 26 WK), Route [Inhibitor]: DERMAL, Strain/Sex: SENCAR/FEMALE, Target Tissue: Type of Lesion: SKIN: PAPILLOMA, Dose [Carcinogen]: 10 NMOL IN 0.2 ML ACETONE APPLIED TO BACK ONCE) | outcome (Carcinogen: 7,12-DIMETHYLBENZ[A]ANTHRACENE, 57-97-6, Dose [Inhibitor]: 0, 33000 NMOL IN 0.2 ML ACETONE APPLIED TO BACK ONCE 5 MIN PRIOR TO CARCINOGEN D (STUDY DURATION: 26 WK), Route [Inhibitor]: DERMAL, Strain/Sex: SENCAR/FEMALE, Target Tissue: Type of Lesion: SKIN: PAPILLOMA, Dose [Carcinogen]: 10 NMOL IN 0.2 ML ACETONE APPLIED TO BACK ONCE.) | tumour outcome (control, treated, inhibition, significance) (Carcinogen: 7,12-DIMETHYLBENZ[A]ANTHRACENE, 57-97-6, Dose [Inhibitor]: 0, 66000 NMOL IN 0.2 ML ACETONE APPLIED TO BACK ONCE 5 MIN PRIOR TO CARCINOGEN DOSE (STUDY DURATION: 20 WK), Route [Inhibitor]: DERMAL, Strain/Sex: SENCAR/FEMALE, Target Tissue: Type of Lesion: SKIN: PAPILLOMA, Dose [Carcinogen]: 10 NMOL IN 0.2 ML ACETONE APPLIED TO BACK ONCE.) | outcome (Carcinogen: 7,12-DIMETHYLBENZ[A]ANTHRACENE, 57-97-6, Dose [Inhibitor]: 0, 66000 NMOL IN 0.2 ML ACETONE APPLIED TO BACK ONCE 5 MIN PRIOR TO CARCINOGEN DOSE (STUDY DURATION: 26 WK), Route [Inhibitor]: DERMAL, Strain/Sex: SENCAR/FEMALE, Target Tissue: Type of Lesion: SKIN: PAPILLOMA, Dose [Carcinogen]: 10 NMOL IN 0.2 ML ACETONE APPLIED TO BACK ONCE.) | tumour outcome (control, treated, inhibition, significance) (Carcinogen: 7,12-DIMETHYLBENZ[A]ANTHRACENE, 57-97-6, Dose [Inhibitor]: 0, 132000 NMOL IN 0.2 ML ACETONE APPLIED TO BACK ONCE 5 MIN PRIOR TO CARCINOGEN DOSE (STUDY DURATION: 20 WK), Route [Inhibitor]: DERMAL, Strain/Sex: SENCAR/FEMALE, Target Tissue: Type of Lesion: SKIN: PAPILLOMA, Dose [Carcinogen]: 10 NMOL IN 0.2 ML ACETONE APPLIED TO BACK ONCE.) | tumour outcome (control, treated, inhibition, significance) (Carcinogen: BENZO[A]PYRENE, 50-32-8, Dose [Inhibitor]: 3300 NMOL IN 0.2 ML ACETONE APPLIED TO BACK ONCE 5 MIN PRIOR TO CARCINOGEN DOSE (STUDY DURATION: 26 WK), Route [Inhibitor]: DERMAL, Strain/Sex: SENCAR/FEMALE, Target Tissue: Type of Lesion: SKIN: PAPILLOMA, Dose [Carcinogen]: 200 NMOL IN 0.2 ML ACETONE APPLIED TO BACK ONCE.) | tumour outcome (control, treated, inhibition, significance) (Carcinogen: BENZO[A]PYRENE, 50-32-8, Dose [Inhibitor]: 33000 NMOL IN 0.2 ML ACETONE APPLIED TO BACK ONCE 5 MIN PRIOR TO CARCINOGEN DOSE (STUDY DURATION: 26 WK), Route [Inhibitor]: DERMAL, Strain/Sex: SENCAR/FEMALE, Target Tissue: Type of Lesion: SKIN: PAPILLOMA, Dose [Carcinogen]: 200 NMOL IN 0.2 ML ACETONE APPLIED TO BACK ONCE.) | tumour outcome (control, treated, inhibition, significance) (Carcinogen: BENZO[A]PYRENE, 50-32-8, Dose [Inhibitor]: 66000 NMOL IN 0.2 ML ACETONE APPLIED TO BACK ONCE 5 MIN PRIOR TO CARCINOGEN DOSE (STUDY DURATION: 20 WK), Route [Inhibitor]: DERMAL, Strain/Sex: SENCAR/FEMALE, Target Tissue: Type of Lesion: SKIN: PAPILLOMA, Dose [Carcinogen]: 200 NMOL IN 0.2 ML ACETONE APPLIED TO BACK ONCE.) | tumour outcome (control, treated, inhibition, significance) (Carcinogen: N-METHYL-N'-NITRO-N-NITROSOGUANIDINE, 70-25-7, Dose [Inhibitor]: 0, 33000 NMOL IN 0.2 ML ACETONE APPLIED TO BACK ONCE 5 MIN PRIOR TO CARCINOGEN DOSE (STUDY DURATION: 20 WK), Route [Inhibitor]: DERMAL, Strain/Sex: SENCAR/FEMALE, Target Tissue: Type of Lesion: SKIN: PAPILLOMA, Dose [Carcinogen]: 2500 NMOL IN 0.2 ML ACETONE APPLIED TO BACK ONCE.) | tumour outcome (control, treated, inhibition, significance) (Carcinogen: BENZO[A]PYRENE, 50-32-8, Dose [Inhibitor]: 0.034 MMOL/G IN DIET BEGINNING 1 WK PRIOR TO CARCINOGEN DOSE AND CONTINUING FOR 3 D POST LAST CARCINOGEN DOSE (STUDY DUR, Route [Inhibitor]: ORAL, Strain/Sex: ICR/FEMALE, Target Tissue: Type of Lesion: FORESTOMACH: TUMOR, Dose [Carcinogen]: 1 MG IN 0.2 ML CORN OIL 2/WK FOR 4 WK, Promoter: NONE USED) |
| --- | --- | --- | --- | --- | --- | --- | --- | --- | --- | --- | --- |
| C#Cc1ccc2ccccc2c1 | 100%, 89%, 11%, not significant | 100%, 96%, 4%, not calculated | 100%, 100%, 0, not calculated | 100%, 100%, 0%, not calculated | 100%, 100%, 0, not calculated | 100%, 89%, 11%, not calculated | 100%, 95%, 5%, not calculated | 100%, 89%, 11%, not calculated | 75%, 74%, 1%, not calculated | 78%, 85%, -9%, not calculated | – |
| Cc1occc(=O)c1O | – | – | – | – | – | – | – | – | – | – | 94%, 100%, -6%, not significant |
